Assay results as given in US10252984B2, “Inhibiting G protein coupled receptor 6 kinase polypeptides” (Mayo Foundation for Medical Education and Research, priority 2011, dated 2019).

Each compound was assayed against GRK6, recombinant full-length GST-tagged human protein (Homo sapiens (Human), UniProt P43250) (assay: GRK6 LabChip microfluidic mobility shift kinase assay). Conditions: 8-point concentration-response, top concentration 60 μM, ATP 12 μM (Km).
Chain of GRK6, recombinant full-length GST-tagged human protein (P43250 whole entry): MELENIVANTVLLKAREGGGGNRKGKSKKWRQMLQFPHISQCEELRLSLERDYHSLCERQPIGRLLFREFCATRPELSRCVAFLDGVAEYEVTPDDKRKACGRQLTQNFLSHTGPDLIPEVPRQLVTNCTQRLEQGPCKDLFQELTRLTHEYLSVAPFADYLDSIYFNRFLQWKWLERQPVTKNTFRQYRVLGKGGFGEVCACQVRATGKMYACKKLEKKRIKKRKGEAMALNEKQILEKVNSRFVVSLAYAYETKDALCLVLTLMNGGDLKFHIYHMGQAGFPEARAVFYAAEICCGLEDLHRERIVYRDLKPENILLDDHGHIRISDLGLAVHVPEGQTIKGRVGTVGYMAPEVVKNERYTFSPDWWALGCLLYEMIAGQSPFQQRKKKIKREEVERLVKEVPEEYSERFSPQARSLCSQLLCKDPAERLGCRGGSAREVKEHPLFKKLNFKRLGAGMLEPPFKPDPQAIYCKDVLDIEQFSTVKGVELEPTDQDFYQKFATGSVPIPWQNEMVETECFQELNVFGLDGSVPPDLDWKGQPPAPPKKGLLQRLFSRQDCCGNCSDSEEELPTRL
Type: biochemical
Protocol: […] All determinations were performed in duplicates. To obtain the IC50 values and the Hill coefficient, the 4-parameter logistic equation was fitted to the data by non-linear regression using XLFit software.
With `C1=Nc2cccc3cccc(c23)N1` the IC50 was 12.5 µM. Compound `C=CCn1c(N)c(C(=O)OC)c2nc3ccccc3nc21` has an IC50 of 0.973 µM. Work on `CCN(CC)CCn1c2ccccc2c2cnc(N)c(C#N)c21` yielded an IC50 of 18.8 µM. `Cc1ccc([N+](=O)[O-])c(NC2OC(CO)C(O)C2O)c1` (stereo not drawn) was tested, and the IC50 was 12 µM. With `Cc1cc(NC(c2ccccn2)c2ccc3cccnc3c2O)no1` (stereo not drawn) the IC50 was 6.45 µM. With `COc1ccc(-c2cnc(-c3cccnc3)o2)cc1` the IC50 was over 60 µM. With `Cc1ccc(-c2ccccc2NS(=O)(=O)c2ccc(S(=O)(=O)N3CCCCCC3)cc2)o1` the IC50 was over 60 µM. `CCN(CC)c1ccc(C(c2c(C)n[nH]c2O)c2c(C)n[nH]c2O)cc1` gave an IC50 of 9.93 µM. `Oc1c(C(Nc2ccccn2)c2cccnc2)ccc2cccnc12` (stereo not drawn) gave an IC50 of 6.75 µM. `CCN(CC)c1ccc(C2Nc3cccc4cccc(c34)N2)c(O)c1` gave an IC50 of 8.44 µM. Work on `CCCCCn1c(N)c(C(=O)OC)c2nc3ccccc3nc21` yielded an IC50 of 1.03 µM. `O=c1cc(-c2ccccc2)oc2cc(O)c(O)c(O)c12` was tested, and the IC50 was 8.7 µM. Work on `CCOC(=O)c1c(N)n(C2CC2)c2nc3ccccc3nc12` yielded an IC50 of 2.83 µM. `CC(=O)Nc1ccc(Nc2nnc(-c3ccc(O)cc3)c3ccccc23)cc1` showed an IC50 of over 60 µM. With `CCCCCCn1c(N)c(C(=O)OC)c2nc3ccccc3nc21` the IC50 was 1.43 µM. `Oc1ccc(-c2nc3ccc4ccccc4c3c3c2CCC3)cc1O` was tested, and the IC50 was 28.4 µM. For `Cc1ccc2nc(NC=O)sc2c1`, the IC50 was over 60 µM. For `N#CC1=C(N)Oc2cc(N)ccc2C1c1cccs1` (stereo not drawn), the IC50 was 11.8 µM. With `N#CC1=C(N)Oc2cc(N)ccc2C1c1cc2cc3c(cc2nc1Cl)OCO3` (stereo not drawn) the IC50 was 6.48 µM. Work on `CCOc1cc(-c2ccc(O)c(O)c2)cc(=O)c2c(C)oc(C)c12` yielded an IC50 of 4.41 µM. `Cc1nc2ccccn2c1-c1csc(Nc2ccc(N)cc2)n1` gave an IC50 of over 60 µM. In the case of `Nc1ccc(CCc2nc3cc(N)ccc3o2)cc1`, the IC50 is reported as 17.8 µM. In the case of `O=S(=O)(Nc1ccc(-n2cnnn2)cc1)c1ccc(S(=O)(=O)N2CCCCCC2)cc1`, the IC50 is reported as over 60 µM. For `COc1ccc(-c2cc(=O)oc3c(O)c(O)ccc23)cc1`, the IC50 was 7.16 µM. `CCOc1cccc(=O)c2c(C)[nH]c(C)c12` was tested, and the IC50 was 2.55 µM. With `O=C(O)c1ccc([C@@H]2Nc3ccc(I)cc3[C@@H]3C=CC[C@@H]32)cc1` the IC50 was 6.66 µM. With `CCOc1ccc(NC(c2ccccn2)c2ccc3cccnc3c2O)cc1` (stereo not drawn) the IC50 was 4.48 µM. For `CCOC(=O)c1ccc(CC(=O)c2ccc(O)c(O)c2O)o1`, the IC50 was 7.05 µM. For `CCOc1cccc(=O)c2c(C)n(-c3ccc(C)cc3)c(C)c12`, the IC50 was 3.4 µM. Work on `c1ccc(-c2ccc(C3=NN=C(NCc4ccco4)SC3)cc2)cc1` yielded an IC50 of 10.4 µM. With `Nc1ccc2c3c1C(=O)OC3(O)c1ccccc1C2=O` (stereo not drawn) the IC50 was 47 µM. `COc1cc(/C=C2/SC(=S)N(c3cccnc3)C2=O)ccc1O` gave an IC50 of 40.6 µM. With `CN(C)c1ccc(O)c2c1CC1CC3[C@H](N(C)C)C(O)=C(C(N)=O)C(=O)[C@@]3(O)C(O)=C1C2=O` (stereo partly drawn) the IC50 was 1.37 µM. Work on `CCCCn1c(N)c(C#N)c2nc3ccccc3nc21` yielded an IC50 of 1.56 µM. For `NC(=O)c1cc(N)c2c(c1N)C(=O)c1ccccc1C2=O`, the IC50 was 12.7 µM. For `O=c1cc(-c2ccc(O)cc2)oc2cc(O)c(O)c(O)c12`, the IC50 was 6.61 µM. For `Oc1ccc(-c2nnc(NCCc3ccccc3)s2)cc1`, the IC50 was over 60 µM. For `O=C(O)CSc1nnc(-c2cccs2)[nH]1`, the IC50 was 4.6 µM. Compound `Cc1ccc(C2C(C#N)=C(N)Oc3cc(N)ccc32)cc1` (stereo not drawn) has an IC50 of 26 µM. `CCn1c(COc2ccccc2)nnc1SCCC(=O)O` gave an IC50 of over 60 µM. With `O=C1Nc2ccc(S(=O)(=O)N3CCCCC3)c3cccc1c23` the IC50 was over 60 µM. With `COCCNC(=O)CN(C(=O)c1snc(C(N)=O)c1N)c1ccccc1` the IC50 was over 60 µM. `Cc1cc2c(C(C)C)c(O)c(O)c(/C=N/CCCN3CCOCC3)c2c(O)c1-c1c(C)cc2c(C(C)C)c(O)c(O)c(/C=N/CCCN3CCOCC3)c2c1O` was tested, and the IC50 was 10.1 µM. In the case of `O=C(O)CSc1nnc(-c2ccc(OC(F)(F)F)cc2)[nH]1`, the IC50 is reported as 5.92 µM. For `CCCCC(CC)CNC(=O)c1ccc(N/N=C2\C(=O)Nc3ccc(Br)cc32)cc1` (stereo not drawn), the IC50 was over 60 µM. For `Cc1cccc(-c2nnc(SCC(=O)O)[nH]2)c1`, the IC50 was 1.44 µM. `Cc1cccc(NC2=NC(=O)/C(=C/c3ccc(O)c(O)c3)S2)c1C` gave an IC50 of 7.11 µM. `Cc1cc2c(c(O)c1-c1c(C)cc3c(c1O)/C(=C/NCCCN1CCOCC1)C(=O)C(O)=C3C(C)C)/C(=C/NCCCN1CCOCC1)C(=O)C(O)=C2C(C)C` gave an IC50 of 16.9 µM. `CCNC(=S)N(CCO)Cc1cc2cc3c(cc2[nH]c1=O)OCO3` showed an IC50 of over 60 µM. With `O=[N+]([O-])c1cc(C2=NN=C(NCc3ccco3)SC2)ccc1Cl` the IC50 was 6.62 µM.

Same assay, conditions: GRK6 polypeptide inhibition assay, class symbols
With `Cc1ccc([N+](=O)[O-])c(NC2OC(CO)C(O)C2O)c1` (stereo not drawn) the IC50 was 10.1 to 20 µM. `Cc1ccc(-c2ccccc2NS(=O)(=O)c2ccc(S(=O)(=O)N3CCCCCC3)cc2)o1` gave an IC50 of over 20 µM.

Same assay, conditions: at ATP Km, 12-pt dose response, duplicates; values only in FIG. 1
`Cn1cc(C2=C(c3cn(CCCSC(=N)N)c4ccccc34)C(=O)NC2=O)c2ccccc21` [Ro-31-8220, reference compound] was tested, and the “IC50 values of model inhibitors” value was “in good agreement with published data”. `O=S(=O)(NCCNC/C=C/c1ccc(Br)cc1)c1cccc2cnccc12` [H89, reference compound] was tested, and the “IC50 values of model inhibitors” value was “in good agreement with published data”.
